Data reported in patent US5063208A, “Peptidyl aminodiol renin inhibitors” (Abbott Laboratories, priority 1990, dated 1991).

Target: T1, human renal renin (Homo sapiens, UniProt P00797)
T1 construct: human renal renin, free from acid proteolytic activity; from tissue
T1 sequence (P00797 67-406): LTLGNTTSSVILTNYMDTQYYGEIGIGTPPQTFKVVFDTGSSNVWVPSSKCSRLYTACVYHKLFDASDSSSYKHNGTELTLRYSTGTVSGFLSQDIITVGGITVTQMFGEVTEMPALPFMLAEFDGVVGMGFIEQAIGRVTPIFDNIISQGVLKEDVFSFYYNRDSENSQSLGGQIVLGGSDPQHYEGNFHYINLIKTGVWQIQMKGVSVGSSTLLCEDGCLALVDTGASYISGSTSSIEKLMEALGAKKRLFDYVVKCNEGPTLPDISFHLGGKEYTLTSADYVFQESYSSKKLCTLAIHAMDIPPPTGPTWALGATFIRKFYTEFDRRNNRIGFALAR
Assay: Inhibition of human renal renin in vitro (angiotensin I formed measured by radioimmunoassay)
Format: biochemical
Conditions: human renal renin free from acid proteolytic activity, renin substrate human angiotensinogen, 37 degrees C, pH 6.0; read-out: IC50 (molar concentration required to cause 50% inhibition)
Description: The compounds of the invention are also useful for treating congestive heart failure in a mammal. […] At the end of the incubation, the amount of angiotensin I formed is measured by radioimmunoassay and the molar concentration required to cause 50% inhibition, expressed as the IC50, is calculated.

Row | IC50 [nM] | Structure (SMILES)
1 | 0.49 | CC(C)C[C@H](NC(=O)[C@H](Cc1cscn1)NC(=O)[C@@H](CC(=O)N(C)CCn1cccn1)Cc1ccccc1)[C@@H](O)[C@@H](O)CC(C)C [Example 111, (2R)-2-Benzyl-3-[(2-pyrazol-1-ylethyl)methylaminocarbonyl]propionyl-L-(4-Thiazolyl)Ala Amide of (4S,5R,6S)-6-Amino-4,5-dihydroxy-2,8-dimethylnonane]
2 | 1.8 | CON(C)C[C@@H](Cc1ccccc1)C(=O)N[C@@H](Cc1cscn1)C(=O)N[C@@H](CC1CCCCC1)[C@@H](O)[C@@H](O)CC(C)C [Example 100, (2R)-2-Benzyl-3-(N-methoxy-N-methylamino)propionyl-L-(4-thiazolyl)Ala Amide of (2S,3R,4S)-2-Amino-1-cyclohexyl-3,4-dihydroxy-6-methylheptane]
3 | 0.78 | COc1ccc(C[C@H](NC(=O)N(C)CCc2ccccn2)C(=O)N[C@@H](Cc2cscn2)C(=O)N[C@@H](CC2CCCCC2)[C@@H](O)[C@@H](O)CC(C)C)cc1 [Example 115, [2-Pyridin-2-ylethyl(methyl)amino]carbonyl(O-methyl)pyrosine-L-(4-thiazolyl)Ala Amide of (2S,3R,4S)-2-Amino-1-cyclohexyl-3,4-dihydroxy-6-methylheptane]
4 | 0.15 | CC(C)C[C@H](O)[C@H](O)[C@H](CC1CCCCC1)NC(=O)[C@H](Cc1cscn1)NC(=O)[C@H](Cc1ccccc1)N1CCOCC1 [Example 113, (2S)-2-(4-Morpholinyl)-3-phenylpropionyl-L-(4-thiazolyl)Ala Amide of (2S,3R,4S)-2-Amino-1-cyclohexyl-3,4-dihydroxy-6-methylheptane]
5 | 0.25 | CC(C)C[C@H](O)[C@H](O)[C@H](CC1CCCCC1)NC(=O)[C@H](Cc1cscn1)NC(=O)[C@@H](Cc1ccccc1)CS(=O)(=O)N(C)CCc1ccccn1 [Example 109, (2R)-2-Benzyl-3-[[2-pyridin-2-ylethyl(methyl)amino]sulfonyl]propionyl-L-(4-thiazolyl)Ala Amide of (2S,3R,4S)-2-Amino-1-cyclohexyl-3,4-dihydroxy-6-methylheptane]
6 | 2.3 | CCCC[C@H](NC(=O)C(Cc1ccccc1)CS(=O)(=O)C1CN(C)C1)C(=O)N[C@@H](CC1CCCCC1)[C@@H](O)[C@@H](O)CC(C)C (mixture of isomers) [Example 110, (2RS)-2-Benzyl-3-(1-methylazetidin-3-ylsulfonyl)propionyl-Nle Amide of (2S,3R,4S)-2-Amino-1-cyclohexyl-3,4-dihydroxy-6-methylheptane]
7 | 0.91 | CC(C)C[C@H](O)[C@H](O)[C@H](CC1CCCCC1)NC(=O)[C@H](Cc1cscn1)NC(=O)[C@@H](CC(=O)C[S+]([O-])C(C)(C)C)Cc1ccccc1 (stereo partly drawn) [Example 99, (2R)-2-Benzyl-5-tert-butylsulfinyl-4-oxopentanoyl-L-(4-thiazolyl)Ala Amide of (2S,3R,4S)-2-Amino-1-cyclohexyl-3,4-dihydroxy-6-methylheptane]
8 | 1.3 | CC(C)C[C@H](O)[C@H](O)[C@H](CC1CCCCC1)NC(=O)[C@H](Cn1cccn1)N(C)C(=O)C(Cc1ccccc1)NC(=O)N(C)CCc1ccccn1 (stereo partly drawn) [Example 156, [(2-pyridin-2-ylethyl)methylcarbonyl]phenylalanine-L-(N-α-methyl)-(1-pyrazolyl)alanine Amide of (2S,3R,4S)-2Amino-1-cyclohexyl-3,4-dihydroxy-6-methylheptane]
9 | 0.43 | CN=c1scc(C[C@@H](Cc2ccccc2)C(=O)N[C@@H](Cc2cscn2)C(=O)N[C@@H](CC2CCCCC2)[C@@H](O)[C@@H](O)CC(C)C)n1C [Example 103, (2R)-2-Benzyl-3-(2-methylimino-3-methyl-2,3-dihydrothiazol-4-yl)propionyl-L-(4-thiazolyl) Ala Amide of (2S,3R,4S)-2-Amino-1-cyclohexyl-3,4-dihydroxy-6-methylheptane]
10 | 0.59 | CC(C)C[C@H](O)[C@H](O)[C@H](CC1CCCCC1)NC(=O)[C@H](Cc1cscn1)NC(=O)[C@@H](CC(=O)N(C)CCc1c[nH]c2ccccc12)Cc1ccccc1 [Example 152, (2R)-2-Benzyl-3-[(2-indol-3-ylethyl)methylaminocarbonyl]propionyl-L-(4-thiazolyl)Ala Amide of (2S,3R,4S)-2-Amino-1-cyclohexyl-3,4-dihydroxy-6-methylheptane]
11 | 0.33 | CC(C)C[C@H](O)[C@H](O)[C@H](CC1CCCCC1)NC(=O)[C@H](Cn1cccn1)NC(=O)[C@@H](CC(=O)N(C)CCc1ccccn1)Cc1ccccc1 [Example 119, (2R)-2-Benzyl-3-[(2-pyridin-2-ylethyl)methylaminocarbonyl]propionyl-L-(1-pyrazolyl)Ala Amide of (2S,3R,4S)-2-Amino-1-cyclohexyl-3,4-dihydroxy-6-methylheptane]
12 | 0.33 | CCCC[C@H](NC(=O)[C@@H](CC(=O)N(C)CCn1cccn1)Cc1ccccc1)C(=O)N[C@@H](CC1CCCCC1)[C@@H](O)[C@@H](O)CC(C)C [Example 121, (2R)-2-Benzyl-3-[(2-pyrazol-1-ylethyl)methylaminocarbonyl]propionyl-Nle Amide of (2S,3R,4S)-2-Amino-1-cyclohexyl-3,4-dihydroxy-6-methylheptane]
13 | 0.45 | CC(C)C[C@H](O)[C@H](O)[C@H](CC1CCCCC1)NC(=O)[C@H](Cc1cscn1)NC(=O)[C@@H](CC(=O)CS(=O)(=O)C(C)(C)C)Cc1ccccc1 [Example 98, (2R)-2-Benzyl-5-tert-butylsulfonyl-4-oxopentanoyl-L-(4-thiazolyl)Ala Amide of (2S,3R,4S)-2-Amino-1-cyclohexyl-3,4-dihydroxy-6-methylheptane]
14 | 0.32 | CC(C)C[C@H](O)[C@H](O)[C@H](CC1CCCCC1)NC(=O)[C@H](Cc1cc[nH]n1)NC(=O)[C@@H](CC(=O)N(C)CCN1CCOCC1)Cc1ccccc1 [Example 155, (2R)-2-Benzyl-3-[(2-morpholin-4-ylethyl)methylcarbonyl]propionyl-L-(3-pyrazolyl)Ala Amide of (2S,3R,4S)-2-Amino-1-cyclohexyl-3,4-dihydroxy-6-methylheptane]
15 | 0.44 | CC(C)C[C@H](O)[C@H](O)[C@H](CC1CCCCC1)NC(=O)[C@H](Cc1cscn1)NC(=O)[C@@H](Cc1ccccc1)CS(=O)(=O)C1CN(C)C1 [Example 108, (2R)-2-Benzyl-3-(1-methylazetidin-3-ylsulfonyl)propionyl-L-(4-thiazolyl)AlaAmide of (2S,3R,4S)-2-Amino-1-cyclohexyl-3,4-dihydroxy-6-methylheptane]
16 | 0.3 | CC(C)C[C@H](O)[C@H](O)[C@H](CC1CCCCC1)NC(=O)[C@H](Cc1cscn1)NC(=O)[C@@H](CC(=O)N(C)CCn1cccn1)Cc1ccccc1 [Example 118, (2R)-2-Benzyl-3-[(2-pyrazol-1-ylethyl)methylaminocarbonyl]propionyl-L-(4-thiazolyl)Ala Amide of (2S,3R,4S)-2-Amino-1-cyclohexyl-3,4-dihydroxy-6-methylheptane]
17 | 0.12 | CC(C)C[C@H](O)[C@H](O)[C@H](CC1CCCCC1)NC(=O)[C@H](Cn1cccn1)NC(=O)[C@@H](CC(=O)N(C)CCN1CCOCC1)Cc1ccccc1 [Example 140, (2R)-2-Benzyl-3-[(2-morpholin-4-ylethyl)methylaminocarbonyl]propionyl-L-(1-pyrazolyl)Ala Amide of (2S,3R,4S)-2-Amino-1-cyclohexyl-3,4-dihydroxy-6-methylheptane.]
18 | 1.1 | CC(C)C[C@H](O)[C@H](O)[C@H](CC1CCCCC1)NC(=O)[C@H](Cc1cscn1)NC(=O)[C@@H](CC1=CSC2=NCCN12)Cc1ccccc1 [Example 105, (2R)-2-Benzyl-3-(5,6-dihydroimidazo[2,1-b]thiazol-3-yl)propionyl-L-(4-thiazolyl)Ala Amide of (2S,3R,4S)-2-Amino-1-cyclohexyl-3,4-dihydroxy-6-methylheptane]
